# Data reported in ChEMBL document CHEMBL1135144, “N-(pyrimidin-4-yl) and N-(pyridin-2-yl) phenylalanine derivatives as VLA-4 integrin antagonists” (Bioorg Med Chem Lett, 2002).
# Test: Compound was evaluated for rate of clearance in IPRL (Isolated Perfused Rat Liver)
# Type: ADME
row,Compound,k el
1,CC(C)CS(=O)(=O)c1nc(N[C@@H](Cc2ccc(NC(=O)c3c(Cl)cncc3Cl)cc2)C(=O)O)cc(C(=O)O)n1,0.00164 s⁻¹
2,CCCS(=O)(=O)c1nc(N[C@@H](Cc2ccc(NC(=O)c3c(Cl)cncc3Cl)cc2)C(=O)O)cc(OC)n1,0.00156 s⁻¹
3,CSc1ncc(C(=O)O)c(N[C@@H](Cc2ccc(NC(=O)c3c(Cl)cncc3Cl)cc2)C(=O)O)n1,0.000361 s⁻¹
4,CCCS(=O)(=O)c1nc(N[C@@H](Cc2ccc(NC(=O)c3c(Cl)cncc3Cl)cc2)C(=O)O)cc(C(=O)O)n1,0.00025 s⁻¹
5,CCCCCCS(=O)(=O)c1nc(N[C@@H](Cc2ccc(NC(=O)c3c(Cl)cncc3Cl)cc2)C(=O)O)cc(C(=O)O)n1,0.000861 s⁻¹
6,CCCS(=O)(=O)c1cc(NC(Cc2ccc(NC(=O)c3c(Cl)cncc3Cl)cc2)C(=O)O)ncc1C(=O)O (centres undefined),5.56e-05 s⁻¹
7,COc1cc(N[C@@H](Cc2ccc(NC(=O)c3c(Cl)cncc3Cl)cc2)C(=O)O)nc(S(C)(=O)=O)n1,0.00136 s⁻¹
8,CCCS(=O)(=O)c1nc(C)cc(N[C@@H](Cc2ccc(NC(=O)c3c(Cl)cncc3Cl)cc2)C(=O)O)n1,0.00181 s⁻¹

# More lines, now with the values ahead:
row,k el,Compound
1,0.000861 s⁻¹,O=C(Nc1ccc(C[C@H](Nc2cc(Oc3ccccc3)ncn2)C(=O)O)cc1)c1c(Cl)cncc1Cl
2,5.56e-05 s⁻¹,O=C(Nc1ccc(CC(Nc2ccc(Cl)cn2)C(=O)O)cc1)c1c(Cl)cncc1Cl (centres undefined)
3,0.00128 s⁻¹,CCC[S+]([O-])c1cc(NC(Cc2ccc(NC(=O)c3c(Cl)cncc3Cl)cc2)C(=O)O)ncc1Cl (centres undefined)
4,0.00144 s⁻¹,O=C(Nc1ccc(C[C@H](Nc2cc(S(=O)(=O)Cc3ccccc3)ncn2)C(=O)O)cc1)c1c(Cl)cncc1Cl
5,0.00122 s⁻¹,CCCS(=O)(=O)c1cc(N[C@@H](Cc2ccc(NC(=O)c3c(Cl)cncc3Cl)cc2)C(=O)O)ncn1
6,0.00111 s⁻¹,CS(=O)(=O)c1cc(N[C@@H](Cc2ccc(NC(=O)c3c(Cl)cncc3Cl)cc2)C(=O)O)ncn1
7,0.00119 s⁻¹,CCC[S+]([O-])c1cc(N[C@@H](Cc2ccc(NC(=O)c3c(Cl)cncc3Cl)cc2)C(=O)O)ncn1 (some centres undefined)
8,0.000583 s⁻¹,CCCS(=O)(=O)c1cc(NC(Cc2ccc(NC(=O)c3c(Cl)cncc3Cl)cc2)C(=O)O)ncc1Cl (centres undefined)
9,0.00144 s⁻¹,CCCS(=O)(=O)c1ccnc(NC(Cc2ccc(NC(=O)c3c(Cl)cncc3Cl)cc2)C(=O)O)c1 (centres undefined)
10,0.00178 s⁻¹,O=C(Nc1ccc(C[C@H](Nc2cc(Cc3ccccc3)ncn2)C(=O)O)cc1)c1c(Cl)cncc1Cl
11,0.00122 s⁻¹,CCCS(=O)(=O)c1nccc(N[C@@H](Cc2ccc(NC(=O)c3c(Cl)cncc3Cl)cc2)C(=O)O)n1
